Data: patent US9090600B2, “Fungicidal 4-substituted-3-{phenyl[(heterocyclylmethoxy)imino]methyl}-1,2,4-oxadizol-5(4H)-one derivatives” (BAYER INTELLECTUAL PROPERTY GMBH, priority 2011, dated 2015)
Marks after values point to notes of the source that are not given here.

Key:
Botrytis cinerea = test: In vivo test on Botrytis cinerea (grey mould); details: gherkin plants, spray, 500 ppm, grading 4/5 days after contamination
Experimental: The active ingredients tested are prepared by homogenization in a mixture of acetone/Tween/DMSO, then diluted with water to obtain the desired active material
Gherkin plants (Vert petit de Paris variety), sown on a 50/50 peat soil-pozzolana substrate in starter cups and grown at 18-20° C., are treated at the cotyledon Z11 stage by spraying with the active ingredient prepared as described above.
Plants, used as controls, are treated with an aqueous solution not containing the active material. After 24 hours, the plants are contaminated by spraying them with an aqueous suspension of cryopreserved Botrytis cinerea spores (50.000 spores per ml) on upper surface of the leaves. The spores are suspended in a nutrient solution composed of: • 10 g/L of PDB; • 50 g/L of D-fructose; • 2 g/L of NH4NO3; • 1 g/L of KH2PO4.
The contaminated cucumber plants are settled for 4/5 days in a climatic room at 17° C. (day/night) and at 80% relative humidity.
Grading is carried out 4/5 days after the contamination, in comparison with the control plants.
(§1) Under these conditions, good (at least 70%) or total protection is observed at a dose of 500 ppm with the following compounds: […]

[1] = pH 2.7
Phytophthora infestans = format: in vivo; details: tomato plants, spray, 500 ppm, grading 5 days after contamination
Uromyces appendiculatus = test: In vivo test on Uromyces appendiculatus (brown rust of bean); details: Saxa variety plants, spray, 500 ppm, grading 10 days after contamination
Experimental: (§2) The active ingredients tested are prepared by homogenization in a mixture of acetone/tween/DMSO, then diluted with water to obtain the desired active material.
[…] (Saxa variety) sown on 50/50 peat soil-pozzolana substrate in starter cups and grown at 24° C., are treated at the 2-leaf stage (9 cm tall) by spraying with the aqueous suspension described above.
(§3) Plants, used as controls, are treated with an aqueous solution not containing the active material.
(§4) After 24 hours, the plants are contaminated by spraying the leaves with an aqueous suspension of Uromyces appendiculatus spores (150.000 spores per ml). The spores are collected from a 10-day-old contaminated […] and are suspended in water containing 2.5 ml/l of tween 80 10%. The contaminated […] are incubated for 24 hours at 20° C. and at 100% relative humidity, and then for 10 days at 20° C. and at 70% relative humidity. Grading is carried out 10 days after the contamination, in comparison with the control plants.
as §1

[2] = test system: Mycosphaerella graminicola; test: In vivo test on Mycosphaerella graminicola (wheat leaf spot); details: wheat plants, spray, 500 ppm, grading 21 to 28 days after contamination
Experimental: The active ingredients tested are prepared by homogenization in a mixture of acetone/tween/DMSO, then diluted with water to obtain the desired active material concentration.
Wheat plants (Scipion variety), sown on a 50/50 peat soil-pozzolana substrate in starter cups and grown at 22° C. (12 h)/20° C. (12 h), are treated at the 1-leaf stage (10 cm tall) by spraying with the aqueous suspension described above. Plants, used as controls, are treated with an aqueous solution not containing the active material.
After 24 hours, the plants are contaminated by spraying them with an aqueous suspension of cryopreserved Mycosphaerella graminicola spores (500.000 spores per ml). The contaminated wheat plants are incubated for 72 hours at 18° C. and at 100% relative humidity, and then for 21 to 28 days at 90% relative humidity.
Grading (% of efficacy) is carried out 21 to 28 days after the contamination, in comparison with the control plants.
as §1

Puccinia recondita = test: In vivo test on Puccinia recondita (brown rust); details: wheat plants, spray, 500 ppm, grading 10 days after contamination
Experimental: as §2
Wheat plants (Scipion variety) sown on 50/50 peat soil-pozzolana substrate in starter cups and grown at 22° C. (12 h)/20° C. (12 h), are treated at the 1-leaf stage (10 cm tall) by spraying with the aqueous suspension described above.
as §4, with “Plants, used as controls, are treated with an aqueous solution not containing the active material. After” for “After”, “Puccinia recondite” for “Uromyces appendiculatus”, “(100.000” for “(150.000”
as §1

[3] = Measurement of log P values by HPLC on reversed phase columns (EEC directive 79/831 Annex V.A8); details: pH 2.7
Pyrenophora teres = test: In vivo test on Pyrenophora teres (barley net blotch); details: barley plants, spray, 500 ppm, grading 12 days after contamination
Experimental: The active ingredients tested are prepared by homogenization in a mixture of acetone/Tween/DMSO, then diluted with water to obtain the desired active material concentration.
Barley plants (Plaisant variety), sown on a 50/50 peat soil-pozzolana substrate in starter cups and grown at 22° C. (12 h)/20° C. (12 h), are treated at the 1-leaf stage (10 cm tall) by spraying with the active ingredient prepared as described above.
as §3
After 24 hours, the plants are contaminated by spraying them with an aqueous suspension of Pyrenophora teres spores (12.000 spores per ml). The spores are collected from a 12-day-old culture.
The contaminated barley plants are incubated for 24 hours at about 20° C. and at 100% relative humidity, and then for 12 days at 80% relative humidity.
Grading is carried out 12 days after the contamination, in comparison with the control plants.
Under these conditions, good (at least 70%) is observed at a dose of 500 ppm with the following compounds: […]

Plasmopara viticola = test: Plasmopara test (grapevines)/preventive; format: in vivo; details: preventive spray, 10 ppm of active ingredient, evaluated 6 days after inoculation
In short: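 Young grapevines sprayed preventively with compound formulated in acetone/dimethylacetamide with emulsifier, diluted in water, then inoculated with P. viticola spores after drying. Held 1 day at ~20 °C/100% RH, 4 days in greenhouse at ~21 °C/~90% RH, then misted for 1 day. Efficacy scored 6 days post-inoculation (0% = untreated control, 100% = no disease).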

Row | Compound | Eff. % (Botrytis cinerea) [%] | LogP [1] | Eff. % (Phytophthora infestans) [%] | Eff. % (Uromyces appendiculatus) [%] | Eff. % [2] [%] | Eff. % (Puccinia recondita) [%] | chromatographic logP [3] | Eff. % (Pyrenophora teres) [%] | Eff. % (Plasmopara viticola) [%]
1 | COc1cccc(C(=NOCc2cccc(N)n2)c2noc(=O)[nH]2)c1 (mixture of isomers) [Example 354] | 71 | 1.29 [a] |  |  |  |  |  |  | 
2 | CC(Nc1cccc(CO/N=C(/c2ccccc2)c2noc(=O)n2C)n1)c1ccccc1 (centres unmarked) [Example 43, 4-methyl-3-{(Z)-phenyl[({6-[(1-phenylethyl)amino]pyridin-2-yl}methoxy)imino]methyl}-1,2,4-oxadiazol-5(4H)-one] |  |  | 100 | 75 | 91 | 94 | 2.86 |  | 
3 | CCCCCCOC(=O)Nc1nc(CO/N=C(/c2ccccc2)c2noc(=O)n2C)cs1 [Example 53] |  | 4.51 [a] | 73 |  |  |  |  | 70 | 
4 | Cn1c(/C(=N\OCc2cccc(NC(=O)CCC3CC3)n2)c2ccccc2)noc1=O [Example 62] |  | 3.51 [a] | 99 | 71 |  |  |  |  | 
5 | CCC(=O)Nc1cccc(CO/N=C(/c2ccccc2)c2noc(=O)n2C)n1 [Example 71] |  | 2.77 [a] | 99 |  | 88 |  |  | 70 | 
6 | Cn1c(/C(=N\OCc2cccc(NC(=O)CCC3CCCC3)n2)c2ccccc2)noc1=O [Example 84] |  | 4.36 [a] | 100 |  |  |  |  | 70 | 
7 | C=CCCCCCC(=O)Nc1cccc(CO/N=C(/c2ccccc2)c2noc(=O)n2C)n1 [Example 99] |  | 4.3 [a] | 99 | 71 |  |  |  |  | 
8 | CC(Oc1ccccc1Br)C(=O)Nc1nc(CO/N=C(/c2ccccc2)c2noc(=O)n2C)cs1 (centres unmarked) [Example 113] |  | 4.2 [a] | 90 | 79 |  |  |  |  | 
9 | Cc1cccc(/C(=N/OCc2cccc(NC(=O)OCc3ccccc3)n2)c2noc(=O)n2C)c1 [Example 117] |  | 4.31 [a] |  |  | 90 |  |  | 79 | 
10 | CCCCC(=O)Nc1cccc(CO/N=C(/c2cccc(F)c2)c2noc(=O)n2C)n1 [Example 140] |  | 3.61 [a] | 100 | 73 |  | 86 |  |  | 85
11 | COc1ccc(/C(=N/OCc2cccc(NC(=O)OC(C)CC(C)C)n2)c2noc(=O)n2C)cc1 (centres unmarked) [Example 185] |  | 4.72 [a] | 83 | 75 |  | 78 |  |  | 
12 | Cn1c(/C(=N\OCc2cccc(NC(=O)OC(C)(C)C)n2)c2cccc(F)c2)noc1=O [Example 206] |  | 4.09 [a] | 100 | 91 |  |  |  |  | 81
13 | CC(Oc1ccc(Br)cc1)C(=O)Nc1nc(CO/N=C(/c2ccccc2)c2noc(=O)n2C)cs1 (centres unmarked) [Example 216] |  | 4.17 [a] | 95 | 71 |  |  |  |  | 
14 | C#CCCOC(=O)Nc1cccc(CO/N=C(/c2cccc(OC)c2)c2noc(=O)n2C)n1 [Example 228] |  | 3.33 [a] | 100 | 70 |  | 81 |  |  | 93
15 | CCCC(C)(C)OC(=O)Nc1cccc(CO/N=C(/c2ccccc2)c2noc(=O)n2C)n1 [Example 233, 2-methylpentan-2-yl {6-[({[(Z)-(4-methyl-5-oxo-4,5-dihydro-1,2,4-oxadiazol-3-yl)(phenyl)methylene]amino}oxy)methyl]pyridin-2-yl}carbamate] |  |  | 99 |  |  | 98 | 4.77 |  | 78
16 | Cc1cccc(C(=NOCc2cccc(NC(=O)OC3CCCCC3)n2)c2noc(=O)n2C)c1 [Example 250] |  | 4.82 [a] | 80 |  | 96 |  |  | 79 | 
17 | Cn1c(C(=NOCc2cccc(NC(=O)Cc3cc(F)ccc3F)n2)c2ccccc2)noc1=O [Example 255] |  | 3.62 [a] | 98 |  | 88 |  |  | 70 | 
18 | C=CCCC(=O)Nc1cccc(CON=C(c2ccccc2)c2noc(=O)n2C)n1 [Example 256] |  | 3.25 [a] | 100 |  |  |  |  | 90 | 
19 | Cn1c(C(=NOCc2cccc(NC(=O)OCCc3ccccc3)n2)c2ccc(F)cc2)noc1=O [Example 258] |  | 4.24 [a] | 89 | 93 |  | 81 |  |  | 
20 | CC(C)C=CCCCCC(=O)Nc1cccc(CON=C(c2ccccc2)c2noc(=O)n2C)n1 [Example 268] |  | 5.06 [a] | 100 |  |  |  |  | 96 | 
21 | CC(Oc1ccc(Cl)cc1)C(=O)Nc1nc(CO/N=C(/c2ccccc2)c2noc(=O)n2C)cs1 (centres unmarked) [Example 276] |  | 4.07 [a] | 98 | 89 |  |  |  |  | 
22 | Cn1c(/C(=N\OCc2cccc(NC(=O)COCc3ccccc3)n2)c2ccccc2)noc1=O [Example 278] | 78 | 3.87 [a] | 100 |  |  |  |  |  | 
23 | CCn1c(C(=NOCc2cccc(NC(=O)CC(C)C)n2)c2ccccc2)noc1=O [Example 280] |  | 3.7 [a] | 100 | 83 |  | 98 |  |  | 
24 | CCCCOC(=O)Nc1cccc(CO/N=C(/c2cccc(F)c2)c2noc(=O)n2C)n1 [Example 295] |  | 4.14 [a] | 97 | 70 |  |  |  |  | 89
25 | Cn1c(/C(=N\OCc2cccc(NC(=O)c3ccc(Cl)cc3Cl)n2)c2ccccc2)noc1=O [Example 332] | 71 | 4.14 [a] | 85 |  |  |  |  |  | 
26 | COCC(=O)Nc1cccc(CO/N=C(/c2ccccc2)c2noc(=O)n2C)n1 [Example 379] |  | 2.73 [a] | 100 |  |  |  |  | 100 | 
27 | CCOCCOC(=O)Nc1cccc(CO/N=C(/c2ccccc2)c2noc(=O)n2C)n1 [Example 400] |  | 3.17 [a] | 100 | 94 |  |  |  |  | 
28 | CCCCCOC(=O)Nc1cccc(CO/N=C(/c2cccc(F)c2)c2noc(=O)n2C)n1 [Example 406] |  | 4.53 [a] | 94 | 79 | 79 | 81 |  |  | 79
